Test results published in US20260022142A1, “MACROCYCLIC IMMUNOMODULATORS” (Bristol-Myers Squibb Company, priority 2022, published 2026).
Numbered stars: 1 amine (or outer) side, 2 acyl side, 3 side chain; on linkers, the order of the positions; unused ones are H or OH. Bridge positions count the residues as written; N and C are the ends. Square brackets hold non-standard residues; d marks the D form. Peptide text beside a SMILES is read from it. * marks the point of attachment. ξ: configuration not given here. Bip = N[C@@H](Cc1ccc(-c2ccccc2)cc1)C(=O)O; Phe(3-Me) = Cc1cccc(C[C@H](N)C(=O)O)c1; Pro(4R-NH2) = N[C@H]1CN[C@H](C(=O)O)C1; βAsp = O=C(O)[C@H](CC(=O)[*:2])N[*:1]; Val(3-OH) = CC(C)(O)[C@H](N)C(=O)O; hArg = N=C(N)NCCCC[C@H](N)C(=O)O; 4Pal = N[C@@H](Cc1ccncc1)C(=O)O; X1 = O=C(CN1CCN([*:1])CC1)[*:2]; 3Thi = N[C@@H](Cc1ccsc1)C(=O)O; Cha = N[C@@H](CC1CCCCC1)C(=O)O; Cit = NC(=O)NCCC[C@H](N)C(=O)O; Thr(3ξ) = CC(O)[C@H](N)C(=O)O; 12Ado = NCCCCCCCCCCCC(=O)O; dNle = CCCC[C@@H](N)C(=O)O; Carboxymethyl = O=C(O)C*; Orn = NCCC[C@H](N)C(=O)O; Aun = NCCCCCCCCCCC(=O)O; Dab = NCC[C@H](N)C(=O)O; Dap = NC[C@H](N)C(=O)O; AEEA = NCCOCCOCC(=O)O; Piv = CC(C)(C)C(=O)*; ξC = NC(CS)C(=O)O

target: T1, PD-1/PD-L1 interaction (PE-labeled human PD-L1-Ig binding to Jurkat cell line over-expressing human PD-1) (Homo sapiens, UniProt Q15116); experiment: Jurkat-PD-1 Cell Binding High-Content Screening Assay (CBA); type: cell-based; conditions: Jurkat cell line over-expressing human PD-1; PE-labeled PD-L1-Ig 20 nM final; read-out: Jurkat hPD1-PDL1 IC50
T1 construct: expressed in transfected cells; host or cells: Jurkat
T1 sequence (Q15116 25-288): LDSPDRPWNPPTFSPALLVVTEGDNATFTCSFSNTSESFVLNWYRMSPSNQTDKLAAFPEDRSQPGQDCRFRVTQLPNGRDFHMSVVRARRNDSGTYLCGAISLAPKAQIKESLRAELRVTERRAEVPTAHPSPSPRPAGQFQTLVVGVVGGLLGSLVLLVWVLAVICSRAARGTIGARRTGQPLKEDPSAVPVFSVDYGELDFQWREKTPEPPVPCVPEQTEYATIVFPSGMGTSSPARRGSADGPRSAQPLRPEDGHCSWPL
In short: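 Binding of fluorescent PD-L1-Ig (20 nM final) to Jurkat-PD-1 cells was measured by automated imaging after 1 h, following a 2 h compound pre-treatment at 37° C.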

| IC50 | SMILES |
| --- | --- |
| 62.8 nM | CC[C@H](C)[C@@H]1NC(=O)[C@H](Cc2ccc(-c3ccccc3)cc2)NC(=O)[C@H](C(C)C)NC(=O)[C@H](Cc2cccc(C)c2)NC(=O)[C@H](CC(=O)O)NC(=O)[C@H](Cc2ccc(C(=O)O)cc2)NC(=O)[C@H](Cc2ccncc2)NC(=O)CSC[C@@H](C(=O)N[C@@H](Cc2cnc[nH]2)C(=O)NCCCCCCCCCCC(=O)O)NC(=O)[C@H]([C@@H](C)O)NC(=O)[C@H](C(C)C)NC(=O)[C@H](CC2CCCCC2)NC(=O)[C@H](CCN)NC(=O)[C@@H](CC(C)C)NC(=O)[C@H](CCCN)NC1=O [Compound 1187] |
| 75.7 nM | Cc1cccc(C[C@@H]2NC(=O)[C@H](CC(=O)O)NC(=O)[C@H](Cc3ccc(O)cc3)NC(=O)[C@H](CC(N)=O)NC(=O)CSC[C@@H](C(=O)N[C@@H](CCCN)C(=O)NCCCCCCCCCCC(=O)O)NC(=O)[C@@H](CCC(N)=O)NC(=O)[C@H](C(C)C)NC(=O)[C@H](CC(C)C)NC(=O)[C@H](CCN)NC(=O)[C@@H](CC(C)C)NC(=O)[C@H](CCCN)NC(=O)[C@H](CCCNC(N)=O)NC(=O)[C@H](Cc3ccc(-c4ccccc4)cc3)NC(=O)[C@H](C(C)C)NC2=O)c1 [Compound 2792] ({CH2CO}-NYD[Phe(3-Me)]V[Bip][Cit][Orn][dL][Dab]LV[dQ]C[Orn][Aun]-OH; thioether N-14) |
| 17.4 nM | CCCC[C@H]1NC(=O)[C@H](CCCN)NC(=O)[C@H](C(C)C)NC(=O)[C@H](Cc2ccc(-c3ccccc3)cc2)NC(=O)[C@H](C(C)C)NC(=O)[C@H](Cc2cccc(C)c2)NC(=O)[C@H](CC(=O)O)NC(=O)[C@H](Cc2ccc(OCC(=O)O)cc2)NC(=O)[C@H](CN)NC(=O)CSC[C@@H](C(=O)N[C@@H](CCN)C(=O)NCCOCCOCC(=O)NCCCCCCCCCCC(=O)O)NC(=O)[C@H](CCCNC(=N)N)NC(=O)[C@H](C(C)C)NC(=O)[C@H](CC2CCCCC2)NC(=O)[C@H](CCN)NC1=O [Compound 2682] ({CH2CO}-[Dap]Y(Carboxymethyl)D[Phe(3-Me)]V[Bip]V[Orn][dNle][Dab][Cha]VRC[Dab][AEEA][Aun]-OH; thioether N-14) |
| 73.6 nM | CC(C)C[C@H]1NC(=O)[C@H](CCCN)NC(=O)[C@H](C(C)C)NC(=O)[C@H](Cc2ccc(-c3ccccc3)cc2)NC(=O)[C@H](C(C)C)NC(=O)[C@H](Cc2c[nH]c3ccccc23)NC(=O)[C@H](CC(=O)O)NC(=O)[C@H](Cc2ccc(OCC(=O)O)cc2)NC(=O)[C@H](Cc2ccsc2)NC(=O)CSC[C@@H](C(=O)N[C@@H](CCCN)C(=O)NCCOCCOCC(=O)NCCCCCCCCCCCC(=O)O)NC(=O)[C@H](C(C)O)NC(=O)[C@H](C(C)C)NC(=O)[C@H](CC2CCCCC2)NC(=O)[C@H](CCN)NC1=O (stereo partly drawn) [Compound 3168] ({CH2CO}-[3Thi]Y(Carboxymethyl)DWV[Bip]V[Orn][dL][Dab][Cha]V[Thr(3ξ)]C[Orn][AEEA][12Ado]-OH; thioether N-14) |
| 10.3 nM | Cc1cccc(C[C@@H]2NC(=O)[C@H](CC(=O)O)NC(=O)[C@H](Cc3ccc(OCC(=O)O)cc3)NC(=O)[C@H](CCCNC(=N)N)NC(=O)CSC[C@@H](C(=O)N[C@@H](CCN)C(=O)NCCCCCCCCCCC(=O)O)NC(=O)[C@H](CCNC(=O)C(C)(C)C)NC(=O)[C@H](C(C)C)NC(=O)[C@H](CC3CCCCC3)NC(=O)[C@H](CCN)NC(=O)[C@@H](CC(C)C)NC(=O)[C@H](CCCN)NC(=O)[C@H](Cc3ccc(OCC(=O)O)cc3)NC(=O)[C@H](Cc3ccc(-c4ccccc4)cc3)NC(=O)[C@H](Cc3ccc(O)cc3)NC2=O)c1 [Compound 2119] ({CH2CO}-RY(Carboxymethyl)D[Phe(3-Me)]Y[Bip]Y(Carboxymethyl)[Orn][dL][Dab][Cha]V[Dab](Piv)C[Dab][Aun]-OH; thioether N-14) |
| 110 nM | CC(C)C[C@@H]1NC(=O)[C@H](Cc2c[nH]c3ccccc23)NC(=O)[C@H](CC(=O)O)NC(=O)[C@H](Cc2ccncc2)NC(=O)[C@H](Cc2ccc(OCC(=O)O)cc2)NC(=O)CSC[C@@H](C(=O)N2CCN(CC(=O)NCCCCCCCCCCC(=O)O)CC2)NC(=O)[C@H](CCCNC(N)=O)NC(=O)[C@H](C(C)C)NC(=O)[C@H](CC2CCCCC2)NC(=O)[C@H](CCN)NC(=O)[C@@H](CC(C)C)NC(=O)[C@H](CCCN)NC(=O)[C@H](C(C)C)NC(=O)[C@H](Cc2ccc(-c3ccccc3)cc2)NC1=O [Compound 1314] ({CH2CO}-Y(Carboxymethyl)[4Pal]DWL[Bip]V[Orn][dL][Dab][Cha]V[Cit]C[X1][Aun]-OH; thioether N-14) |
| 0.6 nM | Cc1cccc(C[C@@H]2NC(=O)[C@H](CC(=O)O)NC(=O)[C@H](Cc3ccc(OCC(=O)O)cc3)NC(=O)[C@H](CCCNC(=N)N)NC(=O)CSC[C@@H](C(=O)N[C@@H](CCN)C(=O)NCCOCCOCC(=O)NCCCCCCCCCCC(=O)O)NC(=O)[C@H](CO)NC(=O)[C@H](C(C)(C)O)NC(=O)[C@H](CC3CCCCC3)NC(=O)[C@H](CCN)NC(=O)[C@@H](CC(C)C)NC(=O)[C@H](CCCN)NC(=O)[C@H](Cc3ccc(OCC(=O)O)cc3)NC(=O)[C@H](Cc3ccc(-c4ccccc4)cc3)NC(=O)[C@H](Cc3ccc(OCC(=O)O)cc3)NC2=O)c1 [Compound 2244] ({CH2CO}-RY(Carboxymethyl)D[Phe(3-Me)]Y(Carboxymethyl)[Bip]Y(Carboxymethyl)[Orn][dL][Dab][Cha][Val(3-OH)]SC[Dab][AEEA][Aun]-OH; thioether N-14) |
| 159 nM | CC(C)C[C@H]1NC(=O)[C@H](CCCN)NC(=O)[C@H](C(C)C)NC(=O)[C@H](Cc2ccc(-c3ccccc3)cc2)NC(=O)[C@H](C(C)C)NC(=O)[C@H](Cc2c[nH]c3ccccc23)NC(=O)[C@H](CC(=O)O)NC(=O)[C@H](Cc2ccc(OCC(=O)O)cc2)NC(=O)[C@H](Cc2ccncc2)NC(=O)CSC[C@@H](C(=O)NCC(=O)NCCOCCOCC(=O)N[C@@H](CCCN)C(=O)NCCCCCCCCCCC(=O)O)NC(=O)[C@H](CCN)NC(=O)[C@H](C(C)C)NC(=O)[C@H](CC2CCCCC2)NC(=O)[C@@H]2C[C@@H](N)CN2C1=O [Compound 3237] ({CH2CO}-[4Pal]Y(Carboxymethyl)DWV[Bip]V[Orn][dL][Pro(4R-NH2)][Cha]V[Dab]CG[AEEA][Orn][Aun]-OH; thioether N-14) |
| 9.1 nM | Cc1cccc(C[C@@H]2NC(=O)[C@H](CC(=O)O)NC(=O)[C@H](Cc3ccc(OCC(=O)O)cc3)NC(=O)[C@H](CCCCNC(=N)N)NC(=O)CSC[C@@H](C(=O)NCCOCCOCC(=O)NCCCCCCCCCCC(=O)O)NC(=O)[C@H](CCC(N)=O)NC(=O)[C@H](C(C)C)NC(=O)[C@H](CC3CCCCC3)NC(=O)[C@H](CCN)NC(=O)[C@@H](CC(C)C)NC(=O)[C@H](CCN)NC(=O)[C@H](Cc3ccc(O)cc3)NC(=O)[C@H](Cc3ccc(-c4ccccc4)cc3)NC(=O)[C@H](C(C)C)NC2=O)c1 [Compound 3396] ({CH2CO}-[hArg]Y(Carboxymethyl)D[Phe(3-Me)]V[Bip]Y[Dab][dL][Dab][Cha]VQC[AEEA][Aun]-OH; thioether N-14) |
| 21.9 nM | Cc1cccc(C[C@@H]2NC(=O)[C@H](CC(=O)O)NC(=O)[C@H](Cc3ccc(OCC(=O)O)cc3)NC(=O)[C@H](CCCN)NC(=O)CSC[C@@H](C(=O)N[C@@H](CCN)C(=O)NCCCCCCCCCCC(=O)O)NC(=O)[C@H]([C@@H](C)O)NC(=O)[C@H](C(C)C)NC(=O)[C@H](CC3CCCCC3)NC(=O)[C@H](CCN)NC(=O)[C@@H](CC(C)C)NC(=O)[C@H](CCCN)NC(=O)[C@H](CCCNC(N)=O)NC(=O)[C@H](Cc3ccc(-c4ccccc4)cc3)NC(=O)[C@H](C(C)C)NC2=O)c1 [Compound 2822] ({CH2CO}-[Orn]Y(Carboxymethyl)D[Phe(3-Me)]V[Bip][Cit][Orn][dL][Dab][Cha]VTC[Dab][Aun]-OH; thioether N-14) |
| 27.4 nM | CC(C)C[C@H]1NC(=O)[C@H](CCCN)NC(=O)[C@H](C(C)C)NC(=O)[C@H](Cc2ccc(-c3ccccc3)cc2)NC(=O)[C@H](C(C)C)NC(=O)[C@H](Cc2c[nH]c3ccccc23)NC(=O)[C@H](CC(=O)O)NC(=O)[C@H](Cc2ccc(OCC(=O)O)cc2)NC(=O)[C@H](CN)NC(=O)CSCC(C(=O)N[C@H](CC(=O)O)C(=O)NCCCCCCCCCCC(=O)O)NC(=O)[C@H]([C@@H](C)O)NC(=O)[C@H](C(C)C)NC(=O)[C@H](CC2CCCCC2)NC(=O)[C@H](Cc2cnc[nH]2)NC1=O (stereo partly drawn) [Compound 1121] ({CH2CO}-[Dap]Y(Carboxymethyl)DWV[Bip]V[Orn][dL]H[Cha]VT[ξC][dD][Aun]-OH; thioether N-14) |
| 9 nM | Cc1cccc(C[C@@H]2NC(=O)[C@H](CC(=O)O)NC(=O)[C@H](Cc3ccc(OCC(=O)O)cc3)NC(=O)[C@H](CN)NC(=O)CSC[C@@H](C(=O)N[C@@H](CC(=O)NCCOCCOCC(=O)NCCCCCCCCCCC(=O)O)C(=O)O)NC(=O)[C@H]([C@@H](C)O)NC(=O)[C@H](C(C)C)NC(=O)[C@H](CC3CCCCC3)NC(=O)[C@H](CCN)NC(=O)[C@@H](CC(C)C)NC(=O)[C@H](CCCN)NC(=O)[C@H](CCCNC(N)=O)NC(=O)[C@H](Cc3ccc(-c4ccccc4)cc3)NC(=O)[C@H](C(C)C)NC2=O)c1 [Compound 1035] ({CH2CO}-[Dap]Y(Carboxymethyl)D[Phe(3-Me)]V[Bip][Cit][Orn][dL][Dab][Cha]VTC[βAsp][AEEA][Aun]-OH; thioether N-14) |
| 340 nM | CC(C)C[C@H]1NC(=O)[C@H](CCCN)NC(=O)[C@H](Cc2ccc(O)cc2)NC(=O)[C@H](Cc2ccc(-c3ccccc3)cc2)NC(=O)[C@H](Cc2ccc(O)cc2)NC(=O)[C@H](Cc2c[nH]c3ccccc23)NC(=O)[C@H](CC(=O)O)NC(=O)[C@H](Cc2ccc(OCC(=O)O)cc2)NC(=O)[C@H](Cc2ccc(OCC(=O)O)cc2)NC(=O)CSC[C@@H](C(=O)NCCOCCOCC(=O)NCCCCCCCCCCC(=O)O)NC(=O)[C@H](CN)NC(=O)[C@H](Cc2ccc(O)cc2)NC(=O)[C@H](CC2CCCCC2)NC(=O)[C@H](CCN)NC1=O [Compound 2522] ({CH2CO}-Y(Carboxymethyl)Y(Carboxymethyl)DWY[Bip]Y[Orn][dL][Dab][Cha]Y[Dap]C[AEEA][Aun]-OH; thioether N-14) |
